Earlier results, collected in patent US6737381B1, “Phytosanitary composition comprising at least a water soluble agent and a modified oil” (Institut National de la Recherche Agronomique, priority 1999, dated 2004).

Conditions: hydrophilic herbicide

O=C(O)CNCP(=O)(O)O [glyphosate, N-(phosphonomethyl)glycine]
log P: < −3.4
